Assay results taken from the supplement of paper PMC10307832.

How the values were obtained:
Experiment in all cases: relative viability (nuclei count vs DMSO), 5 days (fraction); higher = more cells survive
[1] = compound: CC1=CC=C(C=C1)C(=O)CN2C3=C(CCCC3)SC2=N [Pifithrin_alpha] + COc1cc2c(Oc3ccc(NC(=O)C4(C(=O)Nc5ccc(F)cc5)CC4)cc3F)ccnc2cc1OCCCN1CCOCC1 [Foretinib] (partner 0.25 µM)
In short: (§1)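 The day after seeding in 1536-well plates, lung cancer cell lines were treated by pin tool with a single drug, or with a fixed anchor-drug dose together with five library-drug doses (not always all listed) in √10 steps. After 5 days, a combined fix-and-stain solution (final 0.05% Triton X-100, 1% formaldehyde, 1 ug/ml Hoechst) was added. Nuclei counted on 4× images gave relative viability as treated counts over vehicle counts, reported as the median of duplicate plates.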

Axitinib + Alpelisib = compound: CNC(=O)c1ccccc1Sc1ccc2c(/C=C/c3ccccn3)n[nH]c2c1 [Axitinib] + Cc1nc(NC(=O)N2CCC[C@H]2C(N)=O)sc1-c1ccnc(C(C)(C)C(F)(F)F)c1 [Alpelisib] (partner 2 µM)
In short: as §1

Axitinib + Navitoclax = compound: CNC(=O)c1ccccc1Sc1ccc2c(/C=C/c3ccccn3)n[nH]c2c1 [Axitinib] + CC1(C)CCC(c2ccc(Cl)cc2)=C(CN2CCN(c3ccc(C(=O)NS(=O)(=O)c4ccc(N[C@H](CCN5CCOCC5)CSc5ccccc5)c(S(=O)(=O)C(F)(F)F)c4)cc3)CC2)C1 [Navitoclax] (partner 0.5 µM)
In short: as §1

Bemcentinib + Trametinib = compound: Nc1nc(Nc2ccc3c(c2)CC[C@@H](N2CCCC2)CC3)nn1-c1cc2c(nn1)-c1ccccc1CCC2 [Bemcentinib] + CC(=O)Nc1cccc(-n2c(=O)n(C3CC3)c(=O)c3c(Nc4ccc(I)cc4F)n(C)c(=O)c(C)c32)c1 [Trametinib] (partner 0.02 µM)
In short: as §1

Cell Line	relative viability ([1]; first compound 1 µM)	relative viability ([1]; first compound 3.162 µM)	relative viability ([1]; first compound 10 µM)	relative viability ([1]; first compound 31.62 µM)	relative viability ([1]; first compound 100 µM)	relative viability (Axitinib + Alpelisib; first compound 0.005 µM)	relative viability (Axitinib + Alpelisib; first compound 0.01581 µM)	relative viability (Axitinib + Alpelisib; first compound 0.05 µM)	relative viability (Axitinib + Alpelisib; first compound 0.1581 µM)	relative viability (Axitinib + Alpelisib; first compound 0.5 µM)	relative viability (Axitinib + Navitoclax; first compound 0.005 µM)	relative viability (Axitinib + Navitoclax; first compound 0.01581 µM)	relative viability (Axitinib + Navitoclax; first compound 0.05 µM)	relative viability (Axitinib + Navitoclax; first compound 0.1581 µM)	relative viability (Axitinib + Navitoclax; first compound 0.5 µM)	relative viability (Bemcentinib + Trametinib; first compound 0.04 µM)	relative viability (Bemcentinib + Trametinib; first compound 0.1265 µM)	relative viability (Bemcentinib + Trametinib; first compound 0.4 µM)	relative viability (Bemcentinib + Trametinib; first compound 1.265 µM)	relative viability (Bemcentinib + Trametinib; first compound 4 µM)
201T	0.928	0.745	0.684	0.627	0.681	1.01	0.959	0.947	0.987	0.972	1.21	1.18	1.18	1.27	1.23	0.731	0.778	0.744	0.743	0.734
A549	1.1	0.958	1.1	0.874	0.959	0.79	0.741	0.775	0.753	0.874	1.19	1.24	1.25	1.13	1.18					
A-427	0.877	1.02	1.08	0.863	1.01	1.05	1.1	1.08	1.05	1.09	0.999	1.05	0.925	0.958	1.04	0.711	0.696	0.812	0.773	0.668
ABC-1	1.16	1.11	1.03	0.942	0.724	1.16	1.06	0.945	1.07	1.54										
BEN	0.357	0.736	0.697	0.508	0.625	0.993	1.04	0.928	1.04	0.908	0.074	0.0723	0.0728	0.0721	0.0571	1.01	1.18	1.21	1.04	1.03
CAL-12T	0.923	1.18	1.06		0.898	1.35	1.38	1.01	1.26	1.32	1.29	1.47	1.15	1.19	1.45	0.347	0.321	0.302	0.339	0.372
COR-L23	0.955	0.987	0.97		0.928	0.77	0.857	0.78	0.83	1.06	0.948	0.983	1.15	1.07	1.15	0.569	0.696	0.66	0.641	0.658
COR-L 105	1.08	0.976	1.13	0.897	0.734	1.08	1.2	1.02	0.932	1.18	1	0.828	0.795	0.65	1.07	0.453	0.48	0.458	0.39	0.377
Calu-6	0.952	0.883	0.76	0.636	0.706	0.847	0.997	1.02	1.01	1.18	0.923	0.87	0.751	0.885	0.929					
ChaGo-K-1	0.917	0.985	0.871	0.828	0.814						1.07	0.779	1.13	0.921	0.895	0.911	0.945	0.939	0.877	0.902
EBC-1	0.0836	0.0947	0.0856	0.0979	0.0988	0.904	0.863	0.806	0.738	1.07	0.468	0.443	0.453	0.509	0.554					
EKVX	0.744		0.736	0.731	0.636	1.06	0.82	0.838	0.87	1	1.07	0.962	0.823	0.921	0.961	0.32	0.372	0.351	0.491	0.34
EMC-BAC-2	0.912	0.932	0.968		0.818	0.788	0.702	0.742	0.749	0.808	1.27	1.12	1.16	1.16	1.27	0.874	0.896	0.873	0.897	0.967
EPLC-272H	0.601	0.66	0.632	0.424	0.695	1.11	0.868	0.949	0.884	0.915	1.19	1.11	1.09	1.18	1.09	0.268	0.287	0.329	0.289	0.295
H3255	0.716	0.949	0.827	0.777	0.92	0.648	0.611	0.632	0.724	0.702	0.617	0.377	0.354	0.476	0.561		0.749	0.696	0.674	0.706
HARA		1.08	0.978		0.656	0.877	0.909	0.975	0.824	1.02	0.979	1.08	1.14	1.08	1.19	0.769	0.83	0.69	0.67	0.96
HCC-15	1.08	1.05	0.93	0.731	0.789	0.933	0.899	0.838	0.847	0.866	0.763	0.699	0.727	0.706	0.78	0.389	0.365	0.44	0.368	0.42
